Key:
Type in all cases: cell-based
[1] = target: T1, human prostanoid EP1 receptor (Homo sapiens, UniProt P34995); assay: FLIPR Ca2+ signaling antagonist assay, EP1 receptor stable cell line; conditions: human recombinant EP1 in HEK-293 EBNA cells; standard agonist PGE2; NA = no antagonism or Kb>=10,000 nM
T1 construct: expressed in transfected cells
T1 sequence (P34995 1-402): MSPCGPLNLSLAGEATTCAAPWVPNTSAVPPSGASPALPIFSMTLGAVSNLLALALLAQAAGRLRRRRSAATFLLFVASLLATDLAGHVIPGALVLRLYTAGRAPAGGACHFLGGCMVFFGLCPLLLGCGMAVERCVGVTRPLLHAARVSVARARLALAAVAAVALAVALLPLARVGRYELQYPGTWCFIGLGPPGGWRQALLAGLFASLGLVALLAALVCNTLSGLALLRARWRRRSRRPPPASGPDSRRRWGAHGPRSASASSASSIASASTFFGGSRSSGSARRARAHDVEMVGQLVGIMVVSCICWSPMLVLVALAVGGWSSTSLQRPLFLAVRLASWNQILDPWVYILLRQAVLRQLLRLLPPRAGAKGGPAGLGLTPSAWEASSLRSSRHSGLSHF
Protocol: (§1) The above compounds were tested for PG antagonist activity as follows using human recombinant prostanoid receptor (DP1, EP1-4, FP, IP and TP) stable cell lines:
(§2) In order to measure the response of Gs and Gi coupled prostanoid receptors as a Ca^2+ signal, chimeric G protein cDNAs were used. Stable cell lines over-expressing human prostanoid DP1, EP1-4, FP, IP, and TP receptors were established as follows:
(§3) Briefly, human prostanoid DP1, EP2, and EP4 receptor cDNAs were co-transfected with chimeric Gqs cDNA containing a haemagglutanin (HA) epitope; human prostanoid EP3 receptors were co-transfected with chimeric Gqi-HA; human EP1, FP, IP, and TP receptor cDNAs were expressed with no exogenous G-proteins. Gqs and Gqi chimeric cDNAs (Molecular Devices, Sunnyvale, Calif., U.S.A.), as well as cDNAs of prostanoid receptors, were cloned into a pCEP4 vector with a hygromycin B selection marker. Transfection into HEK-293 EBNA (Epstein-Barr virus nuclear antigen) cells was achieved by the FuGENE 6 transfection Reagent (Roche Applied Science, Indianapolis, Ind., USA). Stable transfectants were selected according to hygromycin resistance. Because Gqs and Gqi contained an HA epitope, G-protein expression was detected by Western blotting analysis using anti-mouse HA monoclonal antibody and horseradish peroxidase (HRP)-conjugated secondary antibody, while functional expression of prostanoid receptors was detected by FLIPR screening (Matias et al., 2004). These stable cell lines were validated using previously published antagonists at 10 μM against serial dilutions of standard agonists by FLIPR functional assays for Ca^2+ Signaling (as described below).
(§4) Ca^2+ signaling studies were performed using a FLIPR TETRA system (Molecular Devices, Sunnyvale, Calif., USA) in the 384-format. This is a high-throughput instrument for cell-based assays to monitor Ca^2+ signaling associated with GPCRs and ion channels. Cells were seeded at a density of 5×10^4 cells/well in BioCoat poly-D-lysine coated, black wall, clear bottom 384-well plates (BD Biosciences, Franklin lakes, NJ, USA) and allowed to attach overnight in an incubator at 37° C. The cells were then washed twice with HBSS-HEPES buffer (Hanks' balanced salt solution without bicarbonate and phenol red, 20 mM HEPES, pH 7.4) using an ELx405 Select CW Microplate Washer (BioTek, Winooski, Vt., USA). After 60 min of dye-loading in the dark using the Ca^2+-sensitive dye Fluo-4AM (Invitrogen, Carlsbad, Calif., USA), at a final concentration of 2×10^−6M, the plates were washed 4 times with HBSS-HEPES buffer to remove excess dye and leaving 50 μl of buffer in each well. The plates were then placed in the FLIPR TETRA instrument and allowed to equilibrate at 37° C. AGN-211377 was added in a 25 μl volume to each well to give final concentrations of 0.1 μl. M, 0.4M, 1 μM, 3 μl. M, 10 μl. M, and 30 μl. M; or 0.067 μM, 0.4M, 0.67 μM, and 1 μM for cells over-expressing TP receptors. After 4.5 minutes, a 7-point serial dilution of the standard agonist for the corresponding receptor, in a 25 μl volume was injected at the final concentrations from 10^−11M to 10^−5M in 10-fold serial dilution increments for cells expressing human recombinant DP1, EP1, EP2, EP3, EP4, FP, and IP receptors. The dose range for the standard agonist for human recombinant TP receptors was from 10^−12M to 10^−6M. HBSS-HEPES buffer was used as the negative control for the standard agonists. Cells were excited with LED (light emitting diode) excitation at 470-495 nm and emission was measured through an emission filter at 515-575 nm. Assay plates were read for 3.5 minutes using the FLIPR^TETRA. The peak increase in fluorescence intensity was recorded for each well. On each plate, negative controls, dose response of positive controls, and co-treatments of antagonist-agonist for each dose were in triplicates. Standard agonists were as follows: DP=BW 245C, EP1-EP4=PGE2, FP=17-phenyl-PGF2a, IP=Cicaprost, and TP=U-46619. […]

[2] = target: T2, human prostanoid EP2 receptor (Homo sapiens, UniProt P43116); assay: FLIPR Ca2+ signaling antagonist assay, EP2 receptor stable cell line; conditions: human recombinant EP2 + chimeric Gqs in HEK-293 EBNA cells; standard agonist PGE2; NA = no antagonism or Kb>=10,000 nM
T2 construct: expressed in transfected cells
T2 sequence (P43116 whole entry): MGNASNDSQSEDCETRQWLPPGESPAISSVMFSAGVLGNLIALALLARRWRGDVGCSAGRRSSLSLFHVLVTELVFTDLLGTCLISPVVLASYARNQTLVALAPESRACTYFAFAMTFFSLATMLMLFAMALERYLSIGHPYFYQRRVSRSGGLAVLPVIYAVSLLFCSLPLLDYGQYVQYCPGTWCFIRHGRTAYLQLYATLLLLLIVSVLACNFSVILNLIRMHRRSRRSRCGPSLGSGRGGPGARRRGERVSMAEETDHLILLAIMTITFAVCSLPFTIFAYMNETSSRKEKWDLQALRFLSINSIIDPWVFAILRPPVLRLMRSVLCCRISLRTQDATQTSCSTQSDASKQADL
Protocol: as §1, §2, §3, §4

[3] = target: T3, human prostanoid EP3 receptor (Homo sapiens, UniProt P43115); assay: FLIPR Ca2+ signaling antagonist assay, EP3 receptor stable cell line; conditions: human recombinant EP3 + chimeric Gqi in HEK-293 EBNA cells; standard agonist PGE2; NA = no antagonism or Kb>=10,000 nM
T3 construct: expressed in transfected cells
T3 sequence (P43115 1-390): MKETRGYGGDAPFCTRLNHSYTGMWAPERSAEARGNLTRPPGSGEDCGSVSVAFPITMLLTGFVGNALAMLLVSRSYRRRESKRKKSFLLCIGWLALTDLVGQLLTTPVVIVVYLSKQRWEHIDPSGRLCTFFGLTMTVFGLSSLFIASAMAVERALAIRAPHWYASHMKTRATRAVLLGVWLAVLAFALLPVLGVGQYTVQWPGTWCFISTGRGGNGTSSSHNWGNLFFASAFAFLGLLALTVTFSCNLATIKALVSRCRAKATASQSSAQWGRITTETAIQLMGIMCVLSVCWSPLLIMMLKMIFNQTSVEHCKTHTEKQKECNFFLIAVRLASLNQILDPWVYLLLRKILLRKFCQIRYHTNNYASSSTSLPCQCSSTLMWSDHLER
Protocol: as §1, §2, §3, §4

[4] = target: T4, human prostanoid EP4 receptor (Homo sapiens, UniProt P35408); assay: FLIPR Ca2+ signaling antagonist assay, EP4 receptor stable cell line; conditions: human recombinant EP4 + chimeric Gqs in HEK-293 EBNA cells; standard agonist PGE2; NA = no antagonism or Kb>=10,000 nM
T4 construct: expressed in transfected cells
T4 sequence (P35408 whole entry): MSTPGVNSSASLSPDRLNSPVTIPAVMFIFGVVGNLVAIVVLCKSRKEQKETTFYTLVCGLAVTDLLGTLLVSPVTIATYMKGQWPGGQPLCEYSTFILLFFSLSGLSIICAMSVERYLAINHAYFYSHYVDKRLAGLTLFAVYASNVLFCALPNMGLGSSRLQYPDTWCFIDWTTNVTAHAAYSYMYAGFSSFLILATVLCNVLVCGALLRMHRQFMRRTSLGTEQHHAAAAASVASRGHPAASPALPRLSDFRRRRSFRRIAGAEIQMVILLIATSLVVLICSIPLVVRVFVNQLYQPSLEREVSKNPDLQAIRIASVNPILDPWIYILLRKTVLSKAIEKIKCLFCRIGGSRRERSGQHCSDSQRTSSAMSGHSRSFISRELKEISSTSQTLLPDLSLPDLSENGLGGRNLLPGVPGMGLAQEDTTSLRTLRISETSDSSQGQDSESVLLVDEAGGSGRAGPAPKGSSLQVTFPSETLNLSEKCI
Protocol: as §1, §2, §3, §4

| Kb [1] [nM] | Kb [2] [nM] | Kb [3] [nM] | Kb [4] [nM] | SMILES |
| --- | --- | --- | --- | --- |
| > 10000 | > 10000 | > 10000 | 130 | CCCn1ncc2cc(Cl)cc(Cn3ncc4cc(C(=O)O)ccc43)c21 [Compound 48] |
| 800 | > 10000 | > 10000 | 5 | CC(C)Cn1ncc2cc(OC(F)(F)F)cc(Cn3ncc4cc(C(=O)O)ccc43)c21 [Compound 45, 1-(1-Isobutyl-5-trifluoromethoxy-1H-indazol-7-ylmethyl)-1H-indazole-5-carboxylic acid] |

Reference: patent US9657018B2, “Antagonists acting at multiple prostaglandin receptors for the treatment of inflammation” (Allergan, Inc., priority 2014, dated 2017)
